Results: patent US9901638B2, “Composition and method for treating an autoimmune disease” (RedHill Biopharma Ltd., priority 2011, dated 2018)

Tested on: EAE relapse (remitting-relapsing MS model)
Experiment: EAE relapse study (PLP139-151/CFA), therapeutic treatment
Format: in vivo
Details: groups of 15; treatment from enrolment to Day 39; vehicle group 8 mice; FTY-720 3 mg/kg p.o. QD, RHB-104 p.o. BID
Description: Disease was induced by immunizing mice on Day 0 with PLP139-151 peptide emulsified in complete Freund's adjuvant (CFA).
To assess disease development, mice were weighed three times per week (Monday, Wednesday and Friday) from the time of immunization and scored daily for clinical signs of EAE starting on Day 9.
Enrollment of mice into groups occurred on the second day of clinical signs of EAE for each mouse. Mice were enrolled into treatment groups as they develop signs of EAE (rolling enrolment).
45 mice were enrolled into 3 groups of 15 and the treatment started on the day of enrolment. Assignment was balanced to achieve similar scores between the groups at enrolment.
Group 1—Vehicle (PBS), p.o., BID, 5 mL/kg (negative control)
Group 2—treated with FTY-720 (Fingolimod, Gilenya) 3 mg/kg, p.o., QD (a drug used for treatment of MS and used as a positive control)
Group 3—treated with RHB-104, p.o., BID, 5 mL/kg
Treatment started on the day of enrolment and continued until Day 39.
All dosing was performed at the same time (+/−1 hour) each day. […]
Mice were scored daily from Day 9 to Day 40, and body weight was measured three times/week (Monday, Wednesday and Friday), starting before immunization (Day −1). […]
Readouts were EAE scores on the scale 0-5 in 0.5 unit increments, and changes in body weight.
EAE was scored on scale 0 to 5 as described above.

In the case of CCCCCCCCc1ccc(CCC(N)(CO)CO)cc1 [FTY-720, Fingolimod], the “Number of mice showing relapse” value is reported as 2 mice.
